{"source": "patent US20240247289A1", "about": "“ANTIBIOTIC FREE FERMENTATIONS, SYSTEMS AND METHODS FOR ACHIEVING ANTIBIOTIC FREE FERMENTATIONS, AND FE[…]-PRODUCTS GENERATED BY ANTIBIOTIC FREE FERMENTATIONS” (POET Research, Inc., priority 2023, published 2024)", "key": {"Saccharomyces cerevisiae [1]": {"tested_on": "Saccharomyces cerevisiae", "settings": "RSH fermentation, infected samples, formic acid alone 100-400 ppm, compared to other infected samples (FIG. 1)", "description": "(§1) Saccharomyces cerevisiae, yeast was added to a yeast propagation set up as follows. Ground corn was mixed with “pre-blend” (a mixture of the waters from various streams that are reused in an ethanol production facility) in an appropriate ratio to obtain slurry (mash) with 35 percent dry solids (including the solids contributed by the pre-blend water). “Preblend” was used as make up water in these studies to simulate the composition of mash, employing an exemplary embodiment provided herein, as it would be in a commercial ethanol production facility. The pH of the corn and “pre blend” slurry was approximately 4.5-4.8. An enzyme blend for raw starch hydrolysis was added to the slurry. Urea (50 percent liquor) was added to the slurry to give a final concentration of approximately 1000 ppm urea. The slurry was mixed in 100 milliliter wide mouth bottles at 60 milliliters per bottle. The bottles were covered with a bottle cap with a 1/16″ hole drilled into the top for gas release following addition of enzyme and the yeast and placed stationary in a water bath. […]\n(§2) The slurry was mixed in 100 milliliter wide mouth bottles at 60 milliliters per bottle. […] Bottles were mixed well, and samples were withdrawn at various intervals during the course of fermentation and analyzed for sugars, organic acids and ethanol using high performance liquid chromatography (HPLC)."}, "lactic acid bacteria [2]": {"tested_on": "lactic acid bacteria", "settings": "RSH fermentation, infected samples, formic acid alone 100-400 ppm (FIG. 2)", "description": "as §1, §2"}, "Saccharomyces cerevisiae [3]": {"tested_on": "Saccharomyces cerevisiae", "settings": "cook process fermentation, infected", "description": "(§3) Saccharomyces cerevisiae, was added to a yeast propagation set up as follows. Liquefied corn slurry acquired from a biorefinery was diluted in an appropriate ratio to obtain slurry (mash) with 20 percent dry solids (including the solids contributed by the pre-blend water). The pH of the slurry liquefact was approximately 5.0-5.5. The enzyme blend for fermentation was added to the slurry. Urea (50 percent liquor) was added to the slurry to give a final concentration of approximately 1000 ppm urea. The slurry was dispensed in 100 milliliter wide mouth bottles at 60 milliliters per bottle. The bottles were covered with a bottle cap with a 1/16″ hole drilled into the top for gas release following addition of enzyme and inoculation of the necessary organisms and placed stationary in a water bath. The fermentation temperature was held constant at 32.2 degrees Celsius for 8-16 hours. This yeast propagation was then used to inoculate fermentations including yeast at a ratio level of 2% total fermentation volume.\n(§4) Liquefied corn slurry was acquired from a biorefinery with 30-35% percent dry solids (including the solids contributed by the pre-blend water). The pH of the slurry was approximately 5.0. The enzyme blend for fermentation was added to the slurry. Urea (50 percent liquor) was added to the slurry to give a final concentration of approximately 1000 ppm urea. The slurry was mixed in 100 milliliter wide mouth bottles at 60 milliliters per bottle. The bottles were covered with a bottle cap with a 1/16″ hole drilled into the top for gas release following addition of enzyme and inoculation of the necessary organisms and placed stationary in a water bath. The fermentation temperature was held constant at 33 degrees Celsius for 72 hours. Bottles were mixed well, and samples were withdrawn at various intervals during the course of fermentation and analyzed for sugars, organic acids and ethanol using high performance liquid chromatography (HPLC)."}, "lactic acid bacteria [4]": {"tested_on": "lactic acid bacteria", "settings": "cook process fermentation, infected, formic acid 100-400 ppm without hop acids (FIG. 4)", "description": "as §3, §4"}}, "data": [{"smiles": "O=CO", "note": "[formic acid]", "values": [{"measurement": "% v/v ethanol at 88 hours", "setting": "Saccharomyces cerevisiae [1]", "result": "substantially reduced % v/v ethanol"}, {"measurement": "ppm lactic acid at 88 hours", "setting": "lactic acid bacteria [2]", "result": "reduced lactic acid ppm at 88 hours fermentation in a dose dependent method"}, {"measurement": "% v/v ethanol at 72 hours, vs Phibro Xact 2.5 ppm", "setting": "Saccharomyces cerevisiae [3]; formic acid treated samples, at most dosages (FIG. 3)", "result": "greater than the % v/v ethanol generated by fermentation with Phibro Xact"}, {"measurement": "% v/v ethanol at 72 hours", "setting": "Saccharomyces cerevisiae [3]; increasing doses of formic acid alone 100-400 ppm (FIG. 3)", "result": "increase in % v/v ethanol"}, {"measurement": "Ppm lactic acid at 72 hours", "setting": "lactic acid bacteria [4]", "result": "decreased dose dependently"}]}]}
